Measured values taken from the Kinase Knowledgebase extract (Sharma et al. 2016).

Each compound was assayed against PIK3CD (Human) (UniProt O00329) (assay: Cell-Free Assay).
Sequence of PIK3CD (Human) (O00329 whole entry, looked up): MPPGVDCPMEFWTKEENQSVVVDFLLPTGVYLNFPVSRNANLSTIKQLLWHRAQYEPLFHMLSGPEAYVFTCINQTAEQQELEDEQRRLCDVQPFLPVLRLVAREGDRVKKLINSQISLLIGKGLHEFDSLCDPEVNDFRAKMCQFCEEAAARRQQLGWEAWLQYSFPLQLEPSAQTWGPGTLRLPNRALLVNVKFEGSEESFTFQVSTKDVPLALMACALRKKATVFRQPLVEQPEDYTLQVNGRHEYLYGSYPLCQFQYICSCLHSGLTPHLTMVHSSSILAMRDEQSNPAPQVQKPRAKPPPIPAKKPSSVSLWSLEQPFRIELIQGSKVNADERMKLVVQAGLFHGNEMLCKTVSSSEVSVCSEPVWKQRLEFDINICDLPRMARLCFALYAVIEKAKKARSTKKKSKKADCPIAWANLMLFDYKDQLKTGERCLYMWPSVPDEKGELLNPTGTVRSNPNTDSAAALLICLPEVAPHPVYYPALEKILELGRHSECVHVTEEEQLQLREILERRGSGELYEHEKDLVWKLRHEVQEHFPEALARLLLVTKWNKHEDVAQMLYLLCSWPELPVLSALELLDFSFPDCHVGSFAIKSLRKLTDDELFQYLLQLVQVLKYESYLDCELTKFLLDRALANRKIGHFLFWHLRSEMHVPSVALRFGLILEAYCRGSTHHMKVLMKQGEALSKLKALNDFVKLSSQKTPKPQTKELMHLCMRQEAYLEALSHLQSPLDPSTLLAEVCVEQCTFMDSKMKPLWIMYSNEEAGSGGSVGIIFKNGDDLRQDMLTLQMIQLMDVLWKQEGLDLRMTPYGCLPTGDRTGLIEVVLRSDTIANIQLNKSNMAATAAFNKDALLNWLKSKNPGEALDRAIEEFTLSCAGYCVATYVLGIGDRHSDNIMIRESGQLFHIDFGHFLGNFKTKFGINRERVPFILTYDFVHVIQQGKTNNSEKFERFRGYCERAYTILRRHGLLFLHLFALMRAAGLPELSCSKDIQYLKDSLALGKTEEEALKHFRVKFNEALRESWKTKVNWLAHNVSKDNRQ
An IC50 of 6.2 nM was found for `Cc1ccn2nc([C@H](C)Nc3ncnc4[nH]cc(-c5cc(O)cc(NS(=O)(=O)CCN(C)C)c5)c34)nc(N3C[C@@H](C)N[C@@H](C)C3)c12` in this work.
An IC50 of 6.4 nM was found for `Cc1ccn2nc([C@H](C)Nc3ncnc(N)c3C#N)nc(N(CCN(C)C)Cc3ccc(N4CCC(N(C)C)CC4)cc3)c12` in this work.
An IC50 of 8 nM was found for `Cc1ccn2nc([C@H](C)Nc3ncnc(N)c3C#N)nc(-c3ccc(O)c(C(C)(C)O)c3)c12` in this work.
An IC50 of 0.4 nM was found for `Cc1cc(C(=O)O)cc(-c2nc([C@H](C)Nc3ncnc(N)c3C#N)nn3ccc(C)c23)c1` in this work.
An IC50 of 1 nM was found for `Cc1ccn2nc(Cn3nc(-c4cc(O)cc(F)c4)c4c(N)ncnc43)nc(N3C[C@@H]4C[C@H]3CN4)c12` in this work.
An IC50 of 2 nM was found for `Cc1ccn2nc(Cn3nc(-c4cc(O)cc(F)c4)c4c(N)ncnc43)nc(OCC3CCOCC3)c12` in this work.
An IC50 of 2.9 nM was found for `Cc1ccn2nc([C@H](C)Nc3ncnc(N)c3C#N)nc(N(CCN(C)C)Cc3ccc(N4CCN(C)CC4)cc3)c12` in this work.
An IC50 of 7 nM was found for `Cc1ccn2nc([C@H](C)Nc3ncnc(N)c3C#N)nc(Oc3cccc(CO)c3)c12` in this work.
An IC50 of 6.1 nM was found for `CNCCNc1nc([C@H](C)Nc2ncnc(N)c2C#N)nn2ccc(C)c12` in this work.
An IC50 of 31 nM was found for `C[C@H](Nc1ncnc(N)c1C#N)c1nc(OCC2CCOCC2)c2c(C#N)ccn2n1` in this work.
An IC50 of 2.6 nM was found for `Cc1cc(C(=O)NCc2ccc(C(=O)NCCO)cc2)cc(-c2nc([C@H](C)Nc3ncnc(N)c3C#N)nn3ccc(C)c23)c1` in this work.
An IC50 of 14.6 nM was found for `Cc1ccn2nc([C@H](C)Nc3ncnc(N)c3C#N)nc(N[C@@H](Cc3ccc(O)cc3)C(N)=O)c12` in this work.
An IC50 of 62 nM was found for `CC(C)Oc1nc([C@H](C)Nc2ncnc(N)c2C#N)nn2cccc12` in this work.
An IC50 of 0.5 nM was found for `COc1ncc(-c2c[nH]c3ncnc(N[C@@H](C)c4nc(N5C[C@@H](C)O[C@@H](C)C5)c5c(C)ccn5n4)c23)cc1NS(C)(=O)=O` in this work.
An IC50 of 76.7 nM was found for `Cc1cc(C(=O)NCc2ccc(S(N)(=O)=O)cc2)cc(-c2nc([C@H](C)Nc3ncnc(N)c3C#N)nn3cccc23)c1` in this work.
An IC50 of 1 nM was found for `Cc1ccn2nc(Cn3nc(-c4cc(O)cc(F)c4)c4c(N)ncnc43)nc(N3C[C@@H](C)O[C@@H](C)C3)c12` in this work.
An IC50 of 0.6 nM was found for `Cc1ccn2nc(Cn3nc(-c4cc(O)cc(F)c4)c4c(N)ncnc43)nc(OCCN3CCC(C(=O)O)CC3)c12` in this work.
An IC50 of 0.1 nM was found for `Cc1ccn2nc(Cn3nc(-c4cc(O)cc(F)c4)c4c(N)ncnc43)nc(N(CCN(C)C)c3cccc(O)c3)c12` in this work.
An IC50 of 0.5 nM was found for `Cc1ccn2nc(Cn3nc(-c4cc(O)cc(NS(C)(=O)=O)c4)c4c(N)ncnc43)nc(N3C[C@@H](C)N[C@@H](C)C3)c12` in this work.
An IC50 of 1.2 nM was found for `CCOC(=O)C1CCN(CCOc2nc(Cn3nc(-c4cc(O)cc(F)c4)c4c(N)ncnc43)nn3ccc(C)c23)CC1` in this work.
An IC50 of 1.3 nM was found for `Cc1ccn2nc([C@H](C)Nc3ncnc(N)c3C#N)nc(-c3cc(O)cc(C#N)c3)c12` in this work.
An IC50 of 10 nM was found for `Cc1ccn2nc([C@H](C)Nc3ncnc(N)c3C#N)nc(Oc3cccc(NCCN(C)C)c3)c12` in this work.
An IC50 of 3.6 nM was found for `Cc1ccn2nc([C@H](C)Nc3ncnc(N)c3C#N)nc(-c3cc(O)cc(C(=O)NCCN(C)C)c3)c12` in this work.
An IC50 of 2 nM was found for `Cc1ccn2nc([C@H](C)Nc3ncnc(N)c3C#N)nc(-c3cc(O)cc(C(=O)NC4CC4)c3)c12` in this work.
An IC50 of 1 nM was found for `Cc1ccn2nc([C@H](C)Nc3ncnc(N)c3C#N)nc(-c3cc(O)cc(C(F)(F)F)c3)c12` in this work.
An IC50 of 1.1 nM was found for `Cc1ccn2nc(Cn3nc(-c4cc(O)cc(F)c4)c4c(N)ncnc43)nc(NCCN3CCCC3)c12` in this work.
An IC50 of 8.8 nM was found for `Cc1ccn2nc([C@H](Cc3cccc(O)c3)Nc3ncnc(N)c3C#N)nc(N3C[C@@H](C)N[C@@H](C)C3)c12` in this work.
An IC50 of 0.5 nM was found for `Cc1ccn2nc([C@H](C)Nc3ncnc(N)c3C#N)nc(N3C[C@@H](C)N[C@@H](C)C3)c12` in this work.
An IC50 of 19 nM was found for `COc1cccc(N(C)c2nc([C@H](C)Nc3ncnc(N)c3C#N)nn3ccc(C)c23)c1` in this work.
An IC50 of 62 nM was found for `Cc1ccn2nc([C@H](C)Nc3ncnc(N)c3-c3cc(O)cc(F)c3)nc(OCC3CCOCC3)c12` in this work.
An IC50 of 3.1 nM was found for `Cc1cc(C(=O)NCCCCCN(C)CCO)cc(-c2nc([C@H](C)Nc3ncnc(N)c3C#N)nn3ccc(C)c23)c1` in this work.
An IC50 of 2 nM was found for `Cc1ccn2nc([C@H](C)Nc3ncnc4[nH]cc(-c5cnn(C)c5)c34)nc(N3C[C@@H](C)N[C@@H](C)C3)c12` in this work.
An IC50 of 7 nM was found for `COc1ncc(-c2nc([C@H](C)Nc3ncnc(N)c3C#N)nn3ccc(C)c23)cc1NS(C)(=O)=O` in this work.
An IC50 of 0.3 nM was found for `Cc1cc(-c2nc([C@H](C)Nc3ncnc(N)c3C#N)nn3ccc(C)c23)cc(C)c1O` in this work.
An IC50 of 45.4 nM was found for `CC(=O)N1[C@H](C)CN(c2nc([C@H](C)Nc3ncnc(N)c3C#N)nn3ccc(C)c23)C[C@@H]1C` in this work.
An IC50 of 5.9 nM was found for `Cc1ccn2nc(Cn3nc(-c4cc(O)cc(F)c4)c4c(N)ncnc43)nc(N3C[C@@H]4CC[C@H]3CN4S(C)(=O)=O)c12` in this work.
An IC50 of 10.6 nM was found for `CN[C@H]1CCCC[C@@H]1N(C)c1nc([C@H](C)Nc2ncnc(N)c2C#N)nn2ccc(C)c12` in this work.
An IC50 of 1 nM was found for `Cc1ccn2nc([C@H](C)Nc3ncnc4[nH]cc(C#N)c34)nc(N(CCN(C)C)c3cccc(O)c3)c12` in this work.
An IC50 of 6 nM was found for `Cc1ccn2nc([C@H](C)Nc3ncnc(N)c3C#N)nc(OC3CCN(C(C)C)CC3)c12` in this work.
An IC50 of 2.5 nM was found for `Cc1ccn2nc(Cn3nc(-c4cc(O)cc(F)c4)c4c(N)ncnc43)nc(OCCN3CCCC3=O)c12` in this work.
An IC50 of 6.1 nM was found for `Cc1ccn2nc(Cn3nc(-c4cc(O)cc(F)c4)c4c(N)ncnc43)nc(N3CCCNCC3)c12` in this work.
An IC50 of 1.7 nM was found for `Cc1cc(C(=O)N(C)Cc2cccc(O)c2)cc(-c2nc([C@H](C)Nc3ncnc(N)c3C#N)nn3ccc(C)c23)c1` in this work.
An IC50 of 6.2 nM was found for `Cc1ccn2nc([C@H](C)Nc3ncnc(N)c3C#N)nc(N3CCC(CN4CCCC4)CC3)c12` in this work.
An IC50 of 9.9 nM was found for `Cc1cc(-c2nc([C@H](C)Nc3ncnc(N)c3C#N)nn3ccc(C)c23)n(C)n1` in this work.
An IC50 of 27 nM was found for `C[C@H](Nc1ncnc(N)c1C#N)c1nc(OCC2CCNCC2)c2cccn2n1` in this work.
An IC50 of 5.9 nM was found for `Cc1ccn2nc([C@H](C)Nc3ncnc(N)c3C#N)nc(-c3ccnc(N4CCC(N(C)C)CC4)c3)c12` in this work.
An IC50 of 6 nM was found for `C[C@H](Nc1ncnc(N)c1C#N)c1nc(OCC2CCOCC2)c2c(Br)ccn2n1` in this work.
An IC50 of 2.7 nM was found for `Cc1ccn2nc(Cn3nc(-c4cc(O)cc(F)c4)c4c(N)ncnc43)nc(N3CCSCC3)c12` in this work.
An IC50 of 10 nM was found for `COc1ccc(S(=O)(=O)Nc2cc(-c3nc([C@H](C)Nc4ncnc(N)c4C#N)nn4ccc(C)c34)cnc2O)cc1` in this work.
An IC50 of 2.8 nM was found for `Cc1cc(N(C)C)cc(C2CCN(c3cc(-c4nc([C@H](C)Nc5ncnc(N)c5C#N)nn5ccc(C)c45)ccn3)CC2)n1` in this work.
An IC50 of 2.8 nM was found for `Cc1ccn2nc(Cn3nc(-c4cc(O)cc(F)c4)c4c(N)ncnc43)nc(N3CCC(C(N)=O)CC3)c12` in this work.
An IC50 of 13 nM was found for `Cc1ccn2nc([C@H](C)Nc3ncnc(N)c3C#N)nc(N(CCN3CCOCC3)c3cccc(O)c3)c12` in this work.
An IC50 of 2.5 nM was found for `Cc1ccn2nc(Cn3nc(-c4cc(O)cc(F)c4)c4c(N)ncnc43)nc(N3CCS(=O)(=O)CC3)c12` in this work.
An IC50 of 0.8 nM was found for `Cc1ccn2nc(Cn3nc(-c4cc(O)cc(F)c4)c4c(N)ncnc43)nc(OCCN3CCOCC3)c12` in this work.
An IC50 of 11.4 nM was found for `Cc1cc(-c2nc([C@H](C)Nc3ncnc(N)c3C#N)nn3cccc23)cc(C)c1C(=O)NCCO` in this work.
An IC50 of 1.9 nM was found for `Cc1ccn2nc([C@H](C)Nc3ncnc(N)c3C#N)nc(CCN3CCOCC3)c12` in this work.
An IC50 of 0.9 nM was found for `Cc1ccn2nc(Cn3nc(-c4cncc(O)c4)c4c(N)ncnc43)nc(N3C[C@@H](C)N[C@@H](C)C3)c12` in this work.
An IC50 of 1 nM was found for `Cc1ccn2nc(Cn3nc(-c4cc(O)cc(F)c4)c4c(N)ncnc43)nc(OC3CCN(C(C)C)CC3)c12` in this work.
